ChEMBL document CHEMBL1201862, “PubChem BioAssay data set” (2004)
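Protocol summary: plate cells (96-well), add compound at 5 concentrations, incubate 48 h, interpolate endpoints linearly. GI50: concentration for 50% inhibition of growth.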 Active and inactive are the calls of the source. Cut-off read from the data, not from the text of the source: active = GI50 up to about 1.1 µM and inactive = higher.

Legend:
Test in all cases: NCI anticancer screen, dose series, 48 h
SW-620 = test system: SW-620
MOLT-4 = test system: MOLT-4
NCI-H522 = test system: NCI-H522
SK-MEL-5 = test system: SK-MEL-5
Malme-3M = test system: Malme-3M
SF-295 = test system: SF-295
ACHN = test system: ACHN
MCF7 = test system: MCF7
HOP-62 = test system: HOP-62
OVCAR-5 = test system: OVCAR-5
EKVX = test system: EKVX
COLO 205 = test system: COLO 205
HCT-116 = test system: HCT-116
786-0 = test system: 786-0
RPMI-8226 = test system: RPMI-8226
LOX IMVI = test system: LOX IMVI
SK-MEL-28 = test system: SK-MEL-28
UACC-257 = test system: UACC-257
NCI-H460 = test system: NCI-H460
SK-MEL-2 = test system: SK-MEL-2

| SMILES | GI50 (SW-620) | GI50 (MOLT-4) | GI50 (NCI-H522) | GI50 (SK-MEL-5) | GI50 (Malme-3M) | GI50 (SF-295) | GI50 (ACHN) | GI50 (MCF7) | GI50 (HOP-62) | GI50 (OVCAR-5) | GI50 (EKVX) | GI50 (COLO 205) | GI50 (HCT-116) | GI50 (786-0) | GI50 (RPMI-8226) | GI50 (LOX IMVI) | GI50 (SK-MEL-28) | GI50 (UACC-257) | GI50 (NCI-H460) | GI50 (SK-MEL-2) |
| --- | --- | --- | --- | --- | --- | --- | --- | --- | --- | --- | --- | --- | --- | --- | --- | --- | --- | --- | --- | --- |
| COc1ccc2c(c1)c(=Cc1ccc(N(C)C)cc1)c1cc(-c3ccccc3)[n+](C)n12 | 0.377 µM (active) | 0.305 µM (active) | 0.0728 µM (active) | 0.304 µM (active) | 0.343 µM (active) | 0.264 µM (active) | 1.14 µM (inactive) | 0.327 µM (active) | 1.36 µM (inactive) | 0.875 µM (active) | 0.255 µM (active) | 0.0246 µM (active) | 0.314 µM (active) | 0.423 µM (active) | 0.182 µM (active) | 0.374 µM (active) | 0.634 µM (active) | 0.359 µM (active) | 0.245 µM (active) | 0.452 µM (active) |
| N#Cc1c2c(c(Nc3ccc(F)cc3)n3c1nc1ccccc13)CCCC2 | > 54 µM (inactive) | 6.32 µM (inactive) | > 62.1 µM (inactive) | 23.8 µM (inactive) | > 100 µM (inactive) | 8.15 µM (inactive) | 1.8 µM (inactive) | > 32.5 µM (inactive) | 29.1 µM (inactive) | > 100 µM (inactive) | > 100 µM (inactive) | > 22.1 µM (inactive) | 20 µM (inactive) | 56.2 µM (inactive) | 10.5 µM (inactive) |  | > 100 µM (inactive) | 27.2 µM (inactive) | 23.1 µM (inactive) | > 100 µM (inactive) |
| CC12C(=O)OC(=O)C1(C)C1C=CC2O1 (stereo not drawn) | > 100 µM (inactive) | > 100 µM (inactive) | > 100 µM (inactive) | 66.4 µM (inactive) | 67.6 µM (inactive) | 62.8 µM (inactive) | > 100 µM (inactive) | > 100 µM (inactive) |  | > 100 µM (inactive) | > 100 µM (inactive) | > 100 µM (inactive) | > 100 µM (inactive) | > 100 µM (inactive) | > 100 µM (inactive) | > 100 µM (inactive) | > 100 µM (inactive) | > 100 µM (inactive) | > 100 µM (inactive) | > 100 µM (inactive) |
| CC(C)(C)[Si](C)(C)OC1(CCc2ccccc2OS(=O)(=O)C(F)(F)F)CCCC=C1COCc1ccccc1 (stereo not drawn) | 58.1 µM (inactive) | 5.14 µM (inactive) | 2.79 µM (inactive) |  | 0.202 µM (active) | 6.34 µM (inactive) | 35.4 µM (inactive) | 19.1 µM (inactive) | > 100 µM (inactive) |  | > 100 µM (inactive) | 5.85 µM (inactive) | 3.33 µM (inactive) | > 100 µM (inactive) | 2.95 µM (inactive) | 4.31 µM (inactive) | > 59.6 µM (inactive) |  |  | 4.59 µM (inactive) |
| O=[N+]([O-])c1cc(C(F)(F)F)cc2c1SC1=Nc3ccccc3CN12 | > 100 µM (inactive) | > 100 µM (inactive) | > 100 µM (inactive) | > 100 µM (inactive) | > 100 µM (inactive) | > 100 µM (inactive) |  | > 100 µM (inactive) | > 100 µM (inactive) | > 100 µM (inactive) | > 100 µM (inactive) | > 100 µM (inactive) | > 100 µM (inactive) |  | > 100 µM (inactive) | > 100 µM (inactive) | > 100 µM (inactive) | > 100 µM (inactive) | > 100 µM (inactive) | > 100 µM (inactive) |
| CC(C)CCCC(C)[C@H]1CC[C@H]2[C@@H]3CC[C@H]4C[C@@H](CCC=C(c5cc(Cl)c(O)c(C(=O)O)c5)c5cc(Cl)c(O)c(C(=O)O)c5)CC[C@]4(C)[C@H]3CC[C@]12C (stereo partly drawn) | > 50 µM (inactive) | > 50 µM (inactive) | > 50 µM (inactive) | 28.8 µM (inactive) | > 50 µM (inactive) | > 50 µM (inactive) | > 50 µM (inactive) | > 50 µM (inactive) | > 50 µM (inactive) | > 50 µM (inactive) | > 50 µM (inactive) | > 50 µM (inactive) | > 50 µM (inactive) | 32.2 µM (inactive) | > 50 µM (inactive) | > 50 µM (inactive) | > 50 µM (inactive) |  | 25.4 µM (inactive) | > 50 µM (inactive) |
| CN1C(=O)C2(C)SC1(c1ccccc1)C1C(=O)N(c3ccccc3)C(=O)C12 (stereo not drawn) | > 100 µM (inactive) | 40.9 µM (inactive) | 96.4 µM (inactive) | 97.7 µM (inactive) | > 100 µM (inactive) | 54.6 µM (inactive) | 91.8 µM (inactive) | 48.5 µM (inactive) | > 100 µM (inactive) | > 100 µM (inactive) | 98.9 µM (inactive) | 67.9 µM (inactive) | 70.8 µM (inactive) | > 100 µM (inactive) | 49.8 µM (inactive) | > 100 µM (inactive) | > 100 µM (inactive) | 26.4 µM (inactive) |  | 75 µM (inactive) |
| Oc1cc(O)c2ccc(-c3ccc(O)c(O)c3)[o+]c2c1 | > 100 µM (inactive) | > 100 µM (inactive) | > 100 µM (inactive) |  | > 100 µM (inactive) | > 10 µM (inactive) | > 100 µM (inactive) | > 100 µM (inactive) | > 100 µM (inactive) | > 100 µM (inactive) | > 100 µM (inactive) |  | > 100 µM (inactive) | > 100 µM (inactive) | 84.9 µM (inactive) | > 100 µM (inactive) | > 100 µM (inactive) | > 100 µM (inactive) | > 100 µM (inactive) | > 100 µM (inactive) |
| c1ccc(C2=C(c3ccccc3)Sc3nnc(CCCCCCCCc4nnc5n4NC(c4ccccc4)=C(c4ccccc4)S5)n3N2)cc1 | > 100 µM (inactive) | 17.9 µM (inactive) | 51.2 µM (inactive) | 33.6 µM (inactive) | > 100 µM (inactive) | 46.7 µM (inactive) | 53.8 µM (inactive) | 35.8 µM (inactive) | > 100 µM (inactive) | > 100 µM (inactive) | 35.5 µM (inactive) | 45.3 µM (inactive) | 25.8 µM (inactive) | 61 µM (inactive) | 27.4 µM (inactive) | 48.2 µM (inactive) | > 100 µM (inactive) | > 100 µM (inactive) | 48.9 µM (inactive) | 63 µM (inactive) |
| N/C(=N/O)N/N=C\c1cc(Cl)cc(Cl)c1O | 3.97 µM (inactive) | 0.55 µM (active) | 3.47 µM (inactive) | 3.3 µM (inactive) | 4.86 µM (inactive) | 0.791 µM (active) |  | 0.428 µM (active) | 0.615 µM (active) | 7.36 µM (inactive) | 6.71 µM (inactive) | 5.7 µM (inactive) | 1.36 µM (inactive) |  | 3.99 µM (inactive) | 0.918 µM (active) | 14.1 µM (inactive) | 4.34 µM (inactive) | 0.0705 µM (active) | 9.62 µM (inactive) |
| O=C1NC2NC3NC(=O)NC3NC2N1 (stereo not drawn) | > 100 µM (inactive) | > 100 µM (inactive) | > 100 µM (inactive) | > 100 µM (inactive) | > 100 µM (inactive) | > 100 µM (inactive) | > 100 µM (inactive) | > 100 µM (inactive) | > 100 µM (inactive) | > 100 µM (inactive) | > 100 µM (inactive) | > 100 µM (inactive) | > 100 µM (inactive) | > 100 µM (inactive) | > 100 µM (inactive) | > 100 µM (inactive) | > 100 µM (inactive) | > 100 µM (inactive) |  | > 100 µM (inactive) |
| O=C1CC(C(COCc2ccccc2)OCc2ccccc2)CC(=O)N1 (stereo not drawn) | > 100 µM (inactive) | > 100 µM (inactive) | > 100 µM (inactive) | > 100 µM (inactive) | > 100 µM (inactive) | > 100 µM (inactive) | > 100 µM (inactive) | > 100 µM (inactive) | > 100 µM (inactive) | > 100 µM (inactive) | > 100 µM (inactive) |  | > 100 µM (inactive) | > 100 µM (inactive) | > 100 µM (inactive) | > 100 µM (inactive) | > 100 µM (inactive) | > 100 µM (inactive) |  |  |
| S=C1C=C(c2ccccc2)Sc2ccccc2N1 |  | 30.4 µM (inactive) | 44.5 µM (inactive) | 74.6 µM (inactive) | > 100 µM (inactive) | > 100 µM (inactive) | > 100 µM (inactive) | > 100 µM (inactive) | 41.4 µM (inactive) | > 100 µM (inactive) | > 100 µM (inactive) | > 100 µM (inactive) | 79.8 µM (inactive) | > 100 µM (inactive) | > 100 µM (inactive) | > 100 µM (inactive) | > 100 µM (inactive) | 48.6 µM (inactive) | > 100 µM (inactive) |  |
| O=C(COc1ccc(OCC(=O)NNC2=NC(c3cc(F)c(Cl)cc3Cl)CS2)c(Cl)c1)NNC1=NC(c2cc(F)c(Cl)cc2Cl)CS1 (stereo not drawn) | 30.6 µM (inactive) | 26.2 µM (inactive) | 14.2 µM (inactive) |  | > 100 µM (inactive) | 19.8 µM (inactive) | 38.5 µM (inactive) | 14 µM (inactive) | > 100 µM (inactive) | 36.7 µM (inactive) | 20.8 µM (inactive) | 34.2 µM (inactive) | 31.5 µM (inactive) | 60.4 µM (inactive) | 20 µM (inactive) | 1.04 µM (active) | 29.5 µM (inactive) | 48 µM (inactive) | 29.9 µM (inactive) | 36.2 µM (inactive) |
| Cc1ccc(/C=C/C(=O)c2cc(CN(C)C)c(O)c(CN(C)C)c2)cc1 | 16.1 µM (inactive) | 16 µM (inactive) | 14.8 µM (inactive) | 14.7 µM (inactive) | 18.3 µM (inactive) | 13.8 µM (inactive) | 12.1 µM (inactive) | 17.3 µM (inactive) | 16.5 µM (inactive) | 66.8 µM (inactive) | 25.7 µM (inactive) | 10.6 µM (inactive) | 15.5 µM (inactive) | 27.2 µM (inactive) | 13.2 µM (inactive) | 6.65 µM (inactive) | 17.6 µM (inactive) | 13.8 µM (inactive) | 12 µM (inactive) |  |
